Measured values taken from US20160376237A1, “NOVEL PYRIDINE DERIVATIVES” (Hoffmann-La Roche Inc., priority 2014, published 2016).

Each molecule was assayed against T1, human CB2 receptors (Homo sapiens, UniProt P34972) (assay: cAMP assay).
T1 construct: expressed in transfected cells; host or cells: CHO cells
T1 sequence (P34972 whole entry): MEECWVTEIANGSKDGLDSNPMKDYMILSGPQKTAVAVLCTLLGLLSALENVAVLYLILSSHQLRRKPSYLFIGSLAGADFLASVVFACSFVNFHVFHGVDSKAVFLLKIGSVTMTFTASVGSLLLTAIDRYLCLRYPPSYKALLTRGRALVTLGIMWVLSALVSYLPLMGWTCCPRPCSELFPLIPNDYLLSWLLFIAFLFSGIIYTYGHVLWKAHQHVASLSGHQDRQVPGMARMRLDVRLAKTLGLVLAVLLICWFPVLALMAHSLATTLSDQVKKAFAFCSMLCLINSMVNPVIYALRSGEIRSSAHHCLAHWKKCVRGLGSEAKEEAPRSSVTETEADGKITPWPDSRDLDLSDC
Type: cell-based
Method: CHO cells expressing human CB1 or CB2 receptors are seeded 17-24 hours prior to the experiment 50.000 cells per well in a black 96 well plate with flat clear bottom (Corning Costar #3904) in DMEM (Invitrogen No. 31331), 1×HT supplement, with 10% fetal calf serum and incubated at 5% CO2 and 37° C. in a humidified incubator. The growth medium was exchanged with Krebs Ringer Bicarbonate buffer with 1 mM IBMX and incubated at 30° C. for 30 min. Compounds were added to a final assay volume of 100 μl and incubated for 30 min at 30° C. Using the cAMP-Nano-TRF detection kit the assay (Roche Diagnostics) was stopped by the addition of 50 μl lysis reagent (Tris, NaCl, 1.5% Triton X100, 2.5% NP40, 10% NaN3) and 50 μl detection solutions ([…] mAb Alexa700-cAMP 1:[…] Ruthenium-2-AHA-cAMP) and shaken for 2 h at room temperature. The time-resolved energy transfer is measured by a TRF reader (Evotec Technologies GmbH), equipped with a ND:YAG laser as excitation source. The plate is measured twice with the excitation at 355 nm and at the emission with a delay of 100 ns and a gate of 100 ns, total exposure time 10 s at 730 (bandwidth 30 nm) or 645 nm (bandwidth 75 nm), respectively. The FRET signal is calculated as follows: FRET=T730-Alexa730-P(T645-B645) with P=Ru730-B730/Ru645-B645, where T730 is the test well measured at 730 nM, T645 is the test well measured at 645 nm, B730 and B645 are the buffer controls at 730 nm and 645 nm, respectively. cAMP content is determined from the function of a standard curve spanning from […] to 0.13 nM cAMP.
EC50 values were determined using Activity Base analysis (ID Business Solution, Limited).
Work on NC(=O)CC1(NC(=O)c2ccc(N3CCC4(C3)CC4(F)F)c(OCC3CC3)n2)COC1 (centres unmarked) [Example 32, N-[3-(2-Amino-2-oxoethyl)oxetan-3-yl]-6-(cyclopropylmethoxy)-5-(2,2-difluoro-5-azaspiro[2.4]heptan-5-yl)pyridine-2-carboxamide] yielded an EC50 of 60.2 nM.
For CC(C)C[C@H](NC(=O)c1ccc(N2CC(C)(F)C2)c(OCC2CC2)n1)C(N)=O [Example 33, N-[(2S)-1-Amino-4-methyl-1-oxopentan-2-yl]-6-(cyclopropylmethoxy)-5-(3-fluoro-3-methylazetidin-1-yl)pyridine-2-carboxamide], the EC50 was 19.6 nM.
Work on CC1(F)CN(c2ccc(C(=O)N3CC(F)(F)C[C@H]3C(N)=O)nc2OCC2CC2)C1 [Example 34, (2S)-1-[6-(Cyclopropylmethoxy)-5-(3-fluoro-3-methylazetidin-1-yl)pyridine-2-carbonyl]-4,4-difluoropyrrolidine-2-carboxamide] yielded an EC50 of 11.4 nM.
CC1(F)CN(c2ccc(C(=O)NC3(CC(N)=O)COC3)nc2OCC2CC2)C1 [Example 35, N-[3-(2-Amino-2-oxoethyl)oxetan-3-yl]-6-(cyclopropylmethoxy)-5-(3-fluoro-3-methylazetidin-1-yl)pyridine-2-carboxamide] was tested, and the EC50 was 213 nM.
For CC(C)C[C@H](NC(=O)c1ccc(N2CC(F)(C3CC3)C2)c(OCC2CC2)n1)C(N)=O [Example 36, N-[(2S)-1-Amino-4-methyl-1-oxopentan-2-yl]-5-(3-cyclopropyl-3-fluoroazetidin-1-yl)-6-(cyclopropylmethoxy)pyridine-2-carboxamide], the EC50 was 20 nM.
NC(=O)[C@@H]1CC(F)(F)CN1C(=O)c1ccc(N2CC(F)(C3CC3)C2)c(OCC2CC2)n1 [Example 37, (2S)-1-[5-(3-Cyclopropyl-3-fluoroazetidin-1-yl)-6-(cyclopropylmethoxy)pyridine-2-carbonyl]-4,4-difluoropyrrolidine-2-carboxamide] was tested, and the EC50 was 19.3 nM.
In the case of NC(=O)CC1(NC(=O)c2ccc(N3CC(F)(C4CC4)C3)c(OCC3CC3)n2)COC1 [Example 38, N-[3-(2-Amino-2-oxoethyl)oxetan-3-yl]-5-(3-cyclopropyl-3-fluoroazetidin-1-yl)-6-(cyclopropylmethoxy)pyridine-2-carboxamide], the EC50 is reported as 48.3 nM.
Work on NC(=O)[C@@H]1CC(F)(F)CN1C(=O)c1ccc(OCC2CC2)c(-c2ccc(Cl)cc2)n1 [Example 39, (2S)-1-[6-(4-Chlorophenyl)-5-(cyclopropylmethoxy)pyridine-2-carbonyl]-4,4-difluoropyrrolidine-2-carboxamide] yielded an EC50 of 18 nM.
In the case of Cc1nc(C(C)(C)NC(=O)c2ccc(OCC3CC3)c(-c3ccc(Cl)cc3)n2)no1 [Example 40, 6-(4-Chlorophenyl)-5-(cyclopropylmethoxy)-N-[2-(5-methyl-1,2,4-oxadiazol-3-yl)propan-2-yl]pyridine-2-carboxamide], the EC50 is reported as 16.9 nM.
CCC(CC)(NC(=O)c1ccc(N2CC(F)(C3CC3)C2)c(OCC2CC2)n1)C(=O)NCCCF [Example 41, 5-(3-Cyclopropyl-3-fluoroazetidin-1-yl)-6-(cyclopropylmethoxy)-N-[3-(3-fluoropropylcarbamoyl)pentan-3-yl]pyridine-2-carboxamide] gave an EC50 of 669 nM.
CC(C)C[C@H](NC(=O)c1ccc(OCC2CC2)c(-c2ccc(Cl)cc2)n1)C(N)=O [Example 42, N-[(2S)-1-Amino-4-methyl-1-oxopentan-2-yl]-6-(4-chlorophenyl)-5-(cyclopropylmethoxy)pyridine-2-carboxamide] gave an EC50 of 4.44 nM.
